Values quoted from earlier work as cited in patent US12502373B2, “High-content abamectin emulsifiable concentrate” (Rotam Agrochem International Company Limited, priority 2021, dated 2025).

Key:
[1] = pH: 5-9 and 25° C.

## Abamectin
rats
  oral LD50: 1470 mg/kg
[1]
  hydrolysis of the aqueous solution: will not be hydrolysed
